Results from US5108930A, “Aminoguanidine assay and applications thereof” (Alteon Inc., priority 1990, dated 1992).
“Also recorded” adds a separate entry of the source. Read-outs that look alike come from different tables or passages of the source.

Legend:
[1] = elimination half-life of aminoguanidine in plasma of patients (HPLC assay) for measurement of kidney function; assay type: in vivo, human; details: 300 mg oral aminoguanidine hydrochloride; for half-life: human, plasma, po, 300 mg, plasma at 10, 14, 18 hours, read-out: AG T1/2 (converted)
Protocol: A) A single 300 mg dose of aminoguanidine hydrochloride is administered to the patient. Administration may be either by a capsule or tablet taken orally, or by a liquid syrup, elixir or the like.
B) After administration of the aminoguanidine or analog material, periodic collection of plasma samples is then conducted. For example, minimum 3 ml blood samples may be collected, and in the instance where aminoguanidine is administered in dry form as in a pill, the first sample may be taken 10 hours after ingestion, the second sample may be taken 14 hours after ingestion, and the third sample may be taken 18 hours after ingestion. In the instance where a liquid is administered, a similar regimen may be observed.
C) The samples collected at the intervals indicated may then be processed in accordance with the method of the present invention to determine aminoguanidine concentration.
D) Thereafter, the elimination half-life (T1/2) may be determined. Particularly, the data may be interpreted and determined by reference to the relationship wherein the slope of the logarithmic decline of plasma concentration over time is identified as the elimination rate (Kelim). Elimination half-life (T1/2) is related to Kelim by the following equation: [formula]
To a 0.5 mL plasma sample was added 0.5 mL of the working internal standard solution (10 μg/mL N-ethyl aminoguanidine tosylate in 7.5% trichloracetic acid). After vortexing (10 sec.) and centrifugation in a microfuge (Eppendorf, 14,000 rpm, 10 min.), the supernatant was decanted into a clean screw top culture tube containing 0.1 mL of an aqueous (10 mg/mL) solution of reacting agent (6-methyl-2-pyridine-carboxaldehyde). The sample was then capped tightly and reacted in a heating block (95°-100° C.) for 10 minutes. After cooling, i the sample was transferred into an HPLC vial, from which a 200 μL aliquot was injected for HPLC analysis.
A Waters Associates Model 510 pump was utilized with a radial compression column (Waters Novapak CN, 8 mm ×10 cm, 4 μm particle size) and a cyano (Waters Resolve Guard-Pak CN) precolumn. Detection was performed using a variable ultraviolet detector (Waters 484) at 302 nm. The mobile phase consisted of (volume to volume) 15% acetonitrile: 10% methanol: 75% of 0.01 M each of 1heptanesulfonic acid and sodium phosphate monobasic. Flow rate was maintained isocratically at 2.0 mL/min. at ambient temperature. Sequential automatic injections were made via a programmable sampler (Waters WISP 712).
All data acquisitions were performed with a Waters Maxima 820 system. A linear test squares analysis of the ratios of drug peak height to internal standard peak height versus concentrations added to human plasma in standards constituted daily instrumentation standardization. Interpolation from the linear regression line determined concentrations of aminoguanidine in quality control and unknown assayed samples
[…] After administration of this total dosage, plasma samples were collected from each of the patients at intervals of 10 hours, 14 hours and 18 hours after administration. The plasma samples were then taken and subjected to the assay of the present invention, in accordance with the protocol utilized in Example 1.
Accordingly, the samples were first combined with a quantity of a working internal standard solution of N-ethyl aminoguanidine tosylate in 7.5 percent trichloroacetic acid. The resulting samples were vortexed for 10 seconds and centrifuged for a period of 10 minutes at a speed of 14,000 rpm. The supernatants were then decanted into a culture tube containing 0 1 ml of an aqueous solution ([…]) of 6-methyl picolinaldehyde. The samples were then tightly capped and reacted in a heating block for a period of 10 minutes, and after cooling, were transferred into HPLC vials from which aliquots were then injected for HPLC analysis.
A radial compression chromatographic column was utilized with an isocratic flow rate and under paired-ion conditions. […]

[2] = tested on: glucose-mediated cross-linking of proteins; details: cited from earlier work
diamine oxidase = details: cited from earlier work
histaminase = details: cited from earlier work
histamine = details: human pregnancy (title of cited paper); cited from earlier work

N=C(N)NN [aminoguanidine]
relationship between aminoguanidine half-life and kidney function (GFR), in words [1]: fairly consistent and linear relationship; also recorded: excellent linear correlation; also recorded: inverse relationship | correlation coefficient r of aminoguanidine T1/2 with GFR ([1]; n=18): 0.875 | half-life ([1]; patient 1, GFR 12.8): 1480 min | half-life ([1]; patient 2, GFR 52.4): 851 min | half-life ([1]; patient 3, GFR 116.3): 230 min | half-life ([1]; patient 4, GFR 44.1): 1300 min | half-life ([1]; patient 5, GFR 31.1): 1140 min | half-life ([1]; patient 6, GFR 80.5): 407 min | half-life ([1]; patient 7, GFR 26.7): 890 min | half-life ([1]; patient 8, GFR 12.1): 1490 min | half-life ([1]; patient 9, GFR 117.2): 284 min | half-life ([1]; patient 10, GFR 148.9): 236 min | half-life ([1]; patient 11, GFR 111.9): 409 min | half-life ([1]; patient 12, GFR 103.8): 365 min | half-life ([1]; patient 13, GFR 41.6): 895 min | half-life ([1]; patient 14, GFR 39.2): 572 min | half-life ([1]; patient 15, GFR 113.2): 289 min | half-life ([1]; patient 16, GFR 82.2): 362 min | half-life ([1]; patient 18, GFR 131.3): 423 min | half-life ([1]; patient 19, GFR 131.1): 388 min | inhibition of glucose-mediated cross-linking of proteins [2]: inhibitor of glucose-mediated cross-linking of proteins | inhibition of diamine oxidase (diamine oxidase): selective inhibitor | inhibitory action on the enzyme histaminase (histaminase): inhibitory action | levels of histamine (histamine): increase levels of histamine
